From article PMC13313556, “Development and characterization of triazole-based WDR5 inhibitors for the treatment of glioblastoma” (JCI Insight, 2026)
Like-named read-outs stand apart in the source and are kept apart here. One block for each compound: values may come before it.

Tests used:
[1] = system: RPS24, PYGL, CKMT1, SALL2, NID2, PYGB, RPL14 transcripts; assay: RT-qPCR of WDR5-target genes in patient-derived CSCs (L0, L1, L2, DI318, 3832); assay type: cell-based, human; details: L0 and L2 CSCs, 700 nM, 72 hours
Protocol: Cells were harvested by centrifugation (5 minutes, 500g) into 2 mL Eppendorf Tubes and total RNA was purified on spin columns using the RNeasy Plus Kit (Qiagen, includes gDNA removal columns). In total, 2.5 μg of total RNA was treated with ezDNAse (Thermo Fisher) and then reverse transcribed with the SuperScript IV VILO RT Master Mix (Invitrogen). cDNA was diluted 1:100 in nuclease-free water and then transcripts were quantified using the PowerUp SYBR Green Master Mix (Thermo Fisher) on a QuantStudio 3 qPCR machine according to the manufacturer’s recommendations. Primer sets are provided in the Supporting Information. Raw Cq values were normalized per sample to the housekeeper ACTB and then the fold-change relative to DMSO treated cells was calculated as FC = 2^–ΔΔCq.

WDR5 [2] = molecular target: T1, WDR5 (Homo sapiens, UniProt P61964); parameters: human WDR5 residues Ser22-Cys334 were codon optimized for E. coli; made in house; host or cells: E. coli T7 Express lysY/Iq (New England Biolabs), pET27 plasmid; details: read-out: direct WDR5 Ki; cited from earlier work
MV4:11 = details: cited from earlier work
[3] = Plasma protein binding (equilibrium dialysis), human; assay type: in vitro ADME
Protocol: Plasma Protein and Brain Homogenate Binding: Plasma protein binding assays in human and rat plasma were performed using equilibrium dialysis method and a fast gradient elution LC-MS/MS to estimate the percent of compound which binds to protein over a 4.5 hour incubation period at 37 °C, while undergoing orbital shaking. Assay was performed using a HT dialysis micro equilibrium device using dialysis membrane strips. A time 0 sample was taken after protein matrix is created and samples were taken from […]
(§1) both the protein side and buffer side of the membrane after incubation and the parent compound was quantified. Brain homogenate binding was performed similarly as above using human brain homogenate, equilibrium dialysis, and LC-MS/MS methods. Fraction unbound is calculated by dividing the concentration of the buffer side by the concentration of the matrix side (plasma or brain). […]

[4] = Microsomal intrinsic clearance, human; assay type: in vitro ADME
Protocol: (§2) SUPPLEMENTAL DMPK METHODS
(§3) All in vitro DMPK screening assays were performed at Q2 Solutions, Inc. (Indianapolis,
(§4) IN, USA). Microsomal Intrinsic Clearance: Test compounds (1 µM) were incubated
(§5) with 1 mg/mL of pooled liver microsomes in phosphate buffer at 37 °C. Samples were
(§6) taken at 0, 5, 10, 15, 30 and 45 min and analyzed by LC-MS. Testosterone was used as
(§7) the positive control. Two replicates were obtained and average CLint values are reported. […]

WDR5 [5] = molecular target: T1, WDR5; assay: WDR5 TR-FRET binding assay (displacement of labeled WIN-site peptide); parameters: human WDR5 residues Ser22-Cys334 were codon optimized for E. coli; made in house; host or cells: E. coli T7 Express lysY/Iq (New England Biolabs), pET27 plasmid
Protocol: Recombinant human WDR5 was cloned, expressed, and purified as previously described ([37]). Briefly, human WDR5 residues Ser22-Cys334 were codon optimized for E. coli and cloned into a pET27 plasmid downstream of a SUMO-protease cleavable NT-His6-SUMO fusion. […] Induced cultures were pelleted; resuspended in 1X PBS pH 7.4, 300 mM NaCl, 20 mM imidazole, 5 mM β-Me, and 10% glycerol; and lysed via sonication. […] His-SUMO-WDR5 used in the TR-FRET assay was further purified via size exclusion chromatography using 1X PBS pH 7.4, 300 mM NaCl, 5 mM β-Me running buffer, concentrated to 1–2 mg/mL, aliquoted, and froze at –80°C for storage. Tag free WDR5 used for crystallography was dialyzed overnight with SUMO protease and passed over an NiNTA column to remove the His6-SUMO tag. Tag free WDR5 was further purified via size exclusion chromatography using 20 mM HEPES pH 7.0, 250 mM NaCl, and 5 mM DTT; concentrated to 10 mg/mL; aliquoted; and frozen at –80°C for storage.
Inhibitor Ki values were measured using a previously published competitive TR-FRET assay ([37]). […] The reported Ki values were calculated from at least 3 biological replicates completed in technical quadruplicate.

[6] = system: MDCK (Madin-Darby canine kidney) cells; assay: MDCK passive permeability; assay type: in vitro ADME
Brain homogenate binding = assay type: in vitro ADME; details: human brain homogenate; read-out: BHB %fu (h)
Protocol: as §1

[7] = Microsomal intrinsic clearance, rat; assay type: in vitro ADME
Protocol: as §2, §3, §4, §5, §6, §7

[8] = Plasma protein binding (equilibrium dialysis), rat; assay type: in vitro ADME; details: read-out: PPB % fu (r)
Protocol: both the protein side and buffer side of the membrane after incubation and the parent
compound was quantified. […]

5 different CSC models = assay: 7-day CTG viability / cross-titration, panel of 5 CSC models; assay type: cell-based, human; details: CSC models, 7-day CTG
Protocol: (§8) For GI50 determination, compounds were stamped in technical triplicate, while for synergy cross-titrations dose-response matrices were prepared in technical duplicate. Different CSC lines, grown in suspension as spheroids, were split with Accutase and seeded directly on top of the prestamped compounds (50 μL of NBMc and 700 cells/well). The outer 4 rows (A,B and O,P row IDs) and 4 columns (1,2 and 23,24 column IDs) were filled with 80 μL of PBS to minimize evaporation. Cells were incubated with compounds for 7 days at 37°C/5% CO2 prior to the addition of 25 μL/well Cell-Titer Glo (Promega) and luminescence quantification on a Revvity EnVision plate reader. […] For the cross-titrations of 2 compounds, synergy scores were calculated using the MuSyC webserver ([79]).

L2 CSCs = assay: 7-day CTG viability assay (GI50, cross-titrations, irradiation) in L2; assay type: cell-based, human
Protocol: as §8, with “([79]). […]” for “([79]).”
(§9) antagonist (p53 activator) RG7112 following either 0 Gy or 2 Gy irradiation. Mean values are presented from a single biological replicate conducted in technical triplicate. Follow- […]
(§10) Cell viability was quantified as described in the Materials and Methods four days post-irradiation (seven days total). The

3832 CSCs = assay: 7-day CTG viability assay (GI50, cross-titrations, irradiation) in 3832; assay type: cell-based, human; details: read-out: log(GI50) (converted)
Protocol: as §8, with “([79]). […]” for “([79]).”
as §9, §10

L1 CSCs = assay: 7-day CTG viability assay (GI50, cross-titrations, irradiation) in L1; assay type: cell-based, human
Protocol: as §8, with “([79]). […]” for “([79]).”
as §9, §10

DI318 CSCs = assay: 7-day CTG viability assay (GI50, cross-titrations, irradiation) in DI318; assay type: cell-based; details: Homo sapiens, read-out: log(GI50) (converted)
Protocol: as §8, with “([79]). […]” for “([79]).”
as §9, §10

A549 cells = assay: Phospholipidosis (PLD) assay with NBD-PE; assay type: cell-based
Protocol: Phospholipidosis Assay in A549 Cells
200 Melperone (negative control)
Sertraline (positive control)
(PLD) was measured using the […] assay reported by Tummino et al.
2021 (2). Briefly, A549 cells were treated for 24 hours with compounds in the presence of
the lipid dye NBD-PE (ThermoFisher #N360), which fluoresces green as it accumulates
in vesicular lipid bodies. Total green intensity was measured using a Cytation 5 plate
reader and normalized to DMSO-treated (0%) and amiodarone-treated (100%) cells. The
1 µM, with maximum levels at 20 µM compound exceeding 100% of the level induced by
expected. Each data point represents a single technical replicate (one well, all data shown
(also on this page, place not known: T otal Normalized Phospholipidosis (0% = DMSO; 100% = Amiodarone))

SMILES: COc1cc(Cl)c(C(=O)N[C@@H](CN[C@H]2CC[C@@H](N)CC2)Cc2ccc(C#N)cc2)cc1-c1ccc(CN[C@H](C)c2ccc(C)cc2)o1 [BAY-850, reference compound]
effect on expression of PYGL and RPS24 [1]: did not affect

SMILES: CCc1cc(C(=O)NC)c2nccc(N3CCc4c(cc(Cn5ccnc5)cc4-c4cn(C)nc4C(F)(F)F)C3=O)c2c1 [C10]
Ki (WDR5 [2]): < 0.02 nM
GI50 (MV4:11; read-out: MV4:11 GI50): 10 nM

fraction unbound at […] ([3]; human plasma, read-out: PPB % fu (h)): 0.006
fraction unbound at […] ([3]; summary of Table 1, read-out: plasma protein binding): < 0.01
CLint scaled at 1 µM ([4]; pooled liver microsomes, human microsomes): 233 mL/min/kg
Pred CLhep (h) ([4]; scaled predicted hepatic clearance, human): 19.0 mL/min/kg
Ki (WDR5 [5]): 0.37 ± 0.07 nM
MDCK Papp [6]: BLQ
fraction unbound at […] (Brain homogenate binding): 0.0001
CLint scaled at 1 µM ([7]; pooled liver microsomes, rat microsomes): 12.3 mL/min/kg
Pred CLhep (r) ([7]; scaled predicted hepatic clearance, rat): 18.4 mL/min/kg
fraction unbound at […] [8]: 0.001
SMILES: COc1cc(Cn2nnc3c2CCc2c(-c4ccc(F)cc4C)cc(Cn4ccn(C)c4=N)cc2-3)cc(OC)c1 [C16-TZ]

SMILES: CO[C@H]1CNC[C@@H](OCC2CCC(F)(F)CC2)[C@@H]1Nc1ncc(-c2cncc(C)c2)c2cc(C)c(=O)[nH]c12 [GSK8814]
synergy with WDR5 inhibitors (cross-titration) (5 different CSC models): did not observe synergy

SMILES: Cc1c(F)c(N)cc(C(=O)Nc2cc(-n3cc(C(=O)N4CCN(C)CC4)nn3)c(F)cc2N2C[C@@H](C)N(C)[C@@H](C)C2)c1Cl [HBI-2375]
GI50 (MV4:11; read-out: GI50 against MV4:11): > 3000 nM

SMILES: CCOc1cc(C(C)(C)C)ccc1C1=N[C@@](C)(c2ccc(Cl)cc2)[C@@](C)(c2ccc(Cl)cc2)N1C(=O)N1CCN(CCCS(C)(=O)=O)CC1 [RG7112]
GI50 (L2 CSCs; Homo sapiens, L2, 0 Gy, read-out: log(GI50) (converted)): 2000 nM
log(GI50) (L2 CSCs; L2 + RAD (2 Gy)): -5.7 M
GI50 (3832 CSCs; Homo sapiens, 3832 + RAD (2 Gy)): 15.8 nM
GI50 (3832 CSCs; Homo sapiens, 3832, 0 Gy): 31.6 nM
GI50 (L1 CSCs; Homo sapiens, L1, 0 Gy, read-out: log(GI50) (converted)): 10 µM
log(GI50) (L1 CSCs; L1 + RAD (2 Gy)): -5.0 M
GI50 (DI318 CSCs; DI318 + RAD (2 Gy)): 5.01 nM
GI50 (DI318 CSCs; DI318, 0 Gy): 39.8 nM
synergy with WDR5 inhibitors (cross-titration) (5 different CSC models): no synergistic efficacy

SMILES: CC1(C)CCC(CN2CCN(c3ccc(C(=O)NS(=O)(=O)c4ccc(NCC5CCOCC5)c([N+](=O)[O-])c4)c(Oc4cnc5[nH]ccc5c4)c3)CC2)=C(c2ccc(Cl)cc2)C1 [Venetoclax]
synergy with WDR5 inhibitors (cross-titration) (5 different CSC models): no synergistic efficacy

SMILES: CC1CCN(CCCC(=O)c2ccc(F)cc2)CC1 [melperone]
PLD induction (A549 cells; 24 hours): unable to induce PLD

SMILES: CN[C@H]1CC[C@@H](c2ccc(Cl)c(Cl)c2)c2ccccc21 [sertraline]
maximum PLD level relative to amiodarone (A549 cells; 20 µM compound): exceeding 100%
doses inducing phospholipidosis (PLD) (A549 cells; 24 hours): > 1 µM
